BindingDB's records for doi:10.1021/jm990537r (Cocensys, 2000)

Biological target: Glutamate receptor ionotropic NMDA 2B (Rattus norvegicus) (UniProt Q00960)
Assay: In vitro inhibition of NMDA responses at NR1A/2B receptor expressed in Xenopus oocytes

Glutamate receptor ionotropic NMDA 2B (Rattus norvegicus), sequence (Q00960 whole entry, looked up): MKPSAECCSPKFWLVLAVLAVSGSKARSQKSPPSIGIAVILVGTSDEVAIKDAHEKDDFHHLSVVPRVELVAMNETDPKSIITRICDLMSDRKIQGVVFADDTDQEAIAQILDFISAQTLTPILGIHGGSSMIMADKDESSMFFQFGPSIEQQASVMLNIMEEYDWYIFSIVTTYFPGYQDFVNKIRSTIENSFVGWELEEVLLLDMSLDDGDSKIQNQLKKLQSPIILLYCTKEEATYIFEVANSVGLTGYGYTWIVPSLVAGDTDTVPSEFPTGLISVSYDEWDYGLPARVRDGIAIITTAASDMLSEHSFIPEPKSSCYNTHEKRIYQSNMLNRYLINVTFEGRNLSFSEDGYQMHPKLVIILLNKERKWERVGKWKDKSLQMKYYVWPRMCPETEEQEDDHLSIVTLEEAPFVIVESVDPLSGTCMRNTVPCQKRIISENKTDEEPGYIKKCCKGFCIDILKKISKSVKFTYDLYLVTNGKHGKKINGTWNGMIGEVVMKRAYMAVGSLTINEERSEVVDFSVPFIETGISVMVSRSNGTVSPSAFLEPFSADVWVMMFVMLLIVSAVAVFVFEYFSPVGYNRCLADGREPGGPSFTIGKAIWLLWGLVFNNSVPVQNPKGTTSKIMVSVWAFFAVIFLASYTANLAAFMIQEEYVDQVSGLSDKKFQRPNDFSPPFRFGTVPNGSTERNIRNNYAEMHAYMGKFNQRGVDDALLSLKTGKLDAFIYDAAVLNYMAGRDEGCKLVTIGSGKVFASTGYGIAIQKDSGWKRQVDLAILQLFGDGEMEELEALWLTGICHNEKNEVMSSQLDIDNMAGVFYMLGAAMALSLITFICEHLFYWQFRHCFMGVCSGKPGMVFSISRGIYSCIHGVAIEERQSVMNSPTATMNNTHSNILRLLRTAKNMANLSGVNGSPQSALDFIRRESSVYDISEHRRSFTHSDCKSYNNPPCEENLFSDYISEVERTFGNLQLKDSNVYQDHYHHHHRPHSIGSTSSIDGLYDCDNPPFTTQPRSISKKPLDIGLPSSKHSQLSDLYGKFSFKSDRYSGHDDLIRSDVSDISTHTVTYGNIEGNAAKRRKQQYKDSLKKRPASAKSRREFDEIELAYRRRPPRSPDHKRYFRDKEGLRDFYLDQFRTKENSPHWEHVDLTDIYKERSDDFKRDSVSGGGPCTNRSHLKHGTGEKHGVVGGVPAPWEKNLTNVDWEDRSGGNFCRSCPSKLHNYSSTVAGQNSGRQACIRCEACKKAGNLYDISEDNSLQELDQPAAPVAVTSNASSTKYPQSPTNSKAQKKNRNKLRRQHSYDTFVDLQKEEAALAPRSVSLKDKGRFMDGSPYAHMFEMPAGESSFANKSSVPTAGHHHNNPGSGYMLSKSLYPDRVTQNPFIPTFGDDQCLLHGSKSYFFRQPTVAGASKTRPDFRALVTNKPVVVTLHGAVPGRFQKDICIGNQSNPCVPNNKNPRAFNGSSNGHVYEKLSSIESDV

IC50: 25 nM
Structure (SMILES): Oc1ccc(OCCN2CCC(Cc3ccccc3)CC2)cc1 [4-[2-(4-Benzyl-piperidin-1-yl)-ethoxy]-phenol]
